Measured values from publication PMC6364417, “Kinase inhibitor library screening identifies synergistic drug combinations effective in sensitive and resistant melanoma cells” (Journal of Experimental & Clinical Cancer Research : CR, 2019).

How the values were obtained:
Test in all cases: Kinase inhibitor library screening, PrestoBlue cell viability, 1 or 10 μM, 72 h
[1] = system: 501Mel-GP cells (Dabrafenib-resistant); settings: 501Mel GP
[2] = system: IGR37-XP cells (Vemurafenib-resistant); settings: IGR37 XP
IGR37 cells (parental) = settings: IGR37 Parental
501Mel cells (parental) = settings: 501Mel Parental
In short: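 PrestoBlue viability readout after 72 h exposure to each inhibitor at 1 or 10 μM, reported relative to untreated cells as % viability. Lines tested: sensitive parental plus derivatives resistant to Vemurafenib (XP) or Dabrafenib (GP), each run at least in duplicate.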

[3] = system: A375-GP cells (Dabrafenib-resistant); settings: A375 GP
[4] = system: 501Mel-XP cells (Vemurafenib-resistant); settings: 501Mel XP
[5] = system: A375-XP cells (Vemurafenib-resistant); settings: A375 XP
A375 cells (parental) = settings: A375 Parental
[6] = system: IGR37-GP cells (Dabrafenib-resistant); settings: IGR37 GP

In the case of `CC(C)(C)c1cnc(CSc2cnc(NC(=O)C3CCNCC3)s2)o1` [SNS-032 (BMS-387032)], the “cell viability (kinase inhibitor library screening)” value ([1]; 1μΜ, 72 h) is reported as 31.8%, the “cell viability (kinase inhibitor library screening)” value ([1]; 10μΜ, 72 h) is reported as 0.161% and the “cell viability (kinase inhibitor library screening)” value ([2]; 1μΜ, 72 h) is reported as 2.8%. For the same molecule, the “cell viability (kinase inhibitor library screening)” value ([2]; 10μΜ, 72 h) was 2.1%, the “cell viability (kinase inhibitor library screening)” value (IGR37 cells (parental); 1μΜ, 72 h) was 3.3% and the “cell viability (kinase inhibitor library screening)” value (IGR37 cells (parental); 10μΜ, 72 h) was 0.754%. For the same molecule, the “cell viability (kinase inhibitor library screening)” value (501Mel cells (parental); 1μΜ, 72 h) was 23.5%, the “cell viability (kinase inhibitor library screening)” value (501Mel cells (parental); 10μΜ, 72 h) was 0.4% and the “cell viability (kinase inhibitor library screening)” value ([3]; 1μΜ, 72 h) was 8.3%. The “cell viability (kinase inhibitor library screening)” value ([3]; 10μΜ, 72 h) was 3.6%, the “cell viability (kinase inhibitor library screening)” value ([4]; 1μΜ, 72 h) was 30.8% and the “cell viability (kinase inhibitor library screening)” value ([4]; 10μΜ, 72 h) was -0.0482%. For the same molecule, the “cell viability (kinase inhibitor library screening)” value ([5]; 1μΜ, 72 h) was 14.3%, the “cell viability (kinase inhibitor library screening)” value ([5]; 10μΜ, 72 h) was 6.4% and the “cell viability (kinase inhibitor library screening)” value (A375 cells (parental); 10μΜ, 72 h) was 7.7%. The “cell viability (kinase inhibitor library screening)” value (A375 cells (parental); 1μΜ, 72 h) was 13.7%, the “cell viability (kinase inhibitor library screening)” value ([6]; 1μΜ, 72 h) was 8.6% and the “cell viability (kinase inhibitor library screening)” value ([6]; 10μΜ, 72 h) was 2.7%.
For `CCc1cc2c(cc1N1CCC(N3CCOCC3)CC1)C(C)(C)c1[nH]c3cc(C#N)ccc3c1C2=O` [CH5424802], the “cell viability (kinase inhibitor library screening)” value ([1]; 1μΜ, 72 h) was 104.8%, the “cell viability (kinase inhibitor library screening)” value ([1]; 10μΜ, 72 h) was 72.7% and the “cell viability (kinase inhibitor library screening)” value ([2]; 1μΜ, 72 h) was 106.4%. For the same molecule, the “cell viability (kinase inhibitor library screening)” value ([2]; 10μΜ, 72 h) was 5.0%, the “cell viability (kinase inhibitor library screening)” value (IGR37 cells (parental); 1μΜ, 72 h) was 103.9% and the “cell viability (kinase inhibitor library screening)” value (IGR37 cells (parental); 10μΜ, 72 h) was 96.2%. The “cell viability (kinase inhibitor library screening)” value (501Mel cells (parental); 1μΜ, 72 h) was 109.6%, the “cell viability (kinase inhibitor library screening)” value (501Mel cells (parental); 10μΜ, 72 h) was 80.1% and the “cell viability (kinase inhibitor library screening)” value ([3]; 10μΜ, 72 h) was 71.2%. The “cell viability (kinase inhibitor library screening)” value ([4]; 1μΜ, 72 h) was 99.2%, the “cell viability (kinase inhibitor library screening)” value ([4]; 10μΜ, 72 h) was 32.3% and the “cell viability (kinase inhibitor library screening)” value ([5]; 1μΜ, 72 h) was 105.6%. For the same molecule, the “cell viability (kinase inhibitor library screening)” value ([5]; 10μΜ, 72 h) was 75.8%, the “cell viability (kinase inhibitor library screening)” value (A375 cells (parental); 10μΜ, 72 h) was 64.9% and the “cell viability (kinase inhibitor library screening)” value (A375 cells (parental); 1μΜ, 72 h) was 106.9%. The “cell viability (kinase inhibitor library screening)” value ([6]; 1μΜ, 72 h) was 105.2% and the “cell viability (kinase inhibitor library screening)” value ([6]; 10μΜ, 72 h) was 10.4%.
In the case of `CO[C@H]1C[C@@H]2CC[C@@H](C)[C@@](O)(O2)C(=O)C(=O)N2CCCC[C@H]2C(=O)O[C@H]([C@H](C)C[C@@H]2CC[C@@H](OP(C)(C)=O)[C@H](OC)C2)CC(=O)[C@H](C)/C=C(\C)[C@@H](O)[C@@H](OC)C(=O)[C@H](C)C[C@H](C)/C=C/C=C/C=C/1C` [Deforolimus (Ridaforolimus)], the “Cell viability in kinase inhibitor library screening, 501Mel GP, 1μΜ” value ([1]; 1μΜ, 72 h, in %) is reported as 66.5, the “Cell viability in kinase inhibitor library screening, 501Mel GP, 10μΜ” value ([1]; 10μΜ, 72 h, in %) is reported as 55.6 and the Cell viability in kinase inhibitor library screening, IGR37 XP, 10μΜ ([2]; 10μΜ, 72 h) is reported as 56.1%. The “Cell viability in kinase inhibitor library screening, IGR37 XP, 1μΜ” value ([2]; 1μΜ, 72 h, in %) was 95.0, the “Cell viability in kinase inhibitor library screening, IGR37 Parental, 1μΜ” value (IGR37 cells (parental); 1μΜ, 72 h, in %) was 82.2 and the “Cell viability in kinase inhibitor library screening, IGR37 Parental, 10μΜ” value (IGR37 cells (parental); 10μΜ, 72 h, in %) was 86.0. The “Cell viability in kinase inhibitor library screening, 501Mel Parental, 1μΜ” value (501Mel cells (parental); 1μΜ, 72 h, in %) was 84.8, the “Cell viability in kinase inhibitor library screening, 501Mel Parental, 10μΜ” value (501Mel cells (parental); 10μΜ, 72 h, in %) was 82.7 and the “Cell viability in kinase inhibitor library screening, A375 GP, 1μΜ” value ([3]; 1μΜ, 72 h) was 79.3. The “Cell viability in kinase inhibitor library screening, A375 GP, 10μΜ” value ([3]; 10μΜ, 72 h) was 72.3, the “Cell viability in kinase inhibitor library screening, 501Mel XP, 1μΜ” value ([4]; 1μΜ, 72 h, in %) was 54.3 and the “Cell viability in kinase inhibitor library screening, 501Mel XP, 10μΜ” value ([4]; 10μΜ, 72 h, in %) was 40.7. For the same molecule, the “Cell viability in kinase inhibitor library screening, A375 XP, 1μΜ” value ([5]; 1μΜ, 72 h) was 79.9, the “Cell viability in kinase inhibitor library screening, A375 XP, 10μΜ” value ([5]; 10μΜ, 72 h) was 76.9 and the “Cell viability in kinase inhibitor library screening, A375 Parental, 10μΜ” value (A375 cells (parental); 10μΜ, 72 h) was 73.5. For the same molecule, the “Cell viability in kinase inhibitor library screening, A375 Parental, 1μΜ” value (A375 cells (parental); 1μΜ, 72 h) was 82.1, the Cell viability in kinase inhibitor library screening, IGR37 GP, 10μΜ ([6]; 10μΜ, 72 h) was 76.8% and the “Cell viability in kinase inhibitor library screening, IGR37 GP, 1μΜ” value ([6]; 1μΜ, 72 h, in %) was 90.2.
For `c1ccc2c(-c3cnn4cc(-c5ccc(N6CCNCC6)cc5)cnc34)ccnc2c1` [LDN193189], the “cell viability (kinase inhibitor library screening)” value ([1]; 1μΜ, in %) was 129.1, the “cell viability (kinase inhibitor library screening)” value ([1]; 10μΜ, in %) was 1.7 and the “cell viability (kinase inhibitor library screening)” value ([2]; 1μΜ, in %) was 103.7. For the same molecule, the “cell viability (kinase inhibitor library screening)” value ([2]; 10μΜ, in %) was 3.2, the “cell viability (kinase inhibitor library screening)” value (IGR37 cells (parental); 10μΜ, in %) was 0.221 and the “cell viability (kinase inhibitor library screening)” value (501Mel cells (parental); 1μΜ, in %) was 119.0. The “cell viability (kinase inhibitor library screening)” value (501Mel cells (parental); 10μΜ, in %) was 0.949, the “cell viability (kinase inhibitor library screening)” value ([3]; 1μΜ, in %) was 104.8 and the “cell viability (kinase inhibitor library screening)” value ([3]; 10μΜ, in %) was 3.4. For the same molecule, the “cell viability (kinase inhibitor library screening)” value ([4]; 10μΜ, in %) was 0.8, the “cell viability (kinase inhibitor library screening)” value ([5]; 1μΜ, in %) was 98.9 and the “cell viability (kinase inhibitor library screening)” value ([5]; 10μΜ, in %) was 2.6. The “cell viability (kinase inhibitor library screening)” value (A375 cells (parental); 1μΜ, in %) was 104.5, the “cell viability (kinase inhibitor library screening)” value (A375 cells (parental); 10μΜ, in %) was 1.7 and the “cell viability (kinase inhibitor library screening)” value ([6]; 1μΜ, in %) was 94.5. For the same molecule, the “cell viability (kinase inhibitor library screening)” value ([6]; 10μΜ, in %) was 4.6.
